In this experiment the test system is P388 leukemia ip, CD2F1 mice, survival T/C. Kind of experiment: NCI In Vivo Anticancer Drug Screen. Data for tumor model P388 Leukemia (intraperitoneal) in CD2F1 (CDF1) mice. As to conditions: endpoint: median survival time, higher = longer survival. An outline of the steps: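 Mice carrying the transplanted tumor received test compound or vehicle. Survival was recorded in each group, and the value is the treated-group measurement divided by that of the vehicle-treated control group.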

[1] abbreviates: dose: 50.0 mg/kg/injection, schedule: Q04DX002 (ip), vehicle: Klucel (hydroxypropylcellulose) (HPC).
Where [2] appears, read: dose: 50.0 mg/kg/injection, schedule: Q01DX009 (ip), vehicle: saline with Tween-80.
Where [3] appears, read: dose: 100.0 mg/kg/injection, schedule: Q01DX009 (ip), vehicle: saline with Tween-80.
Where [4] appears, read: dose: 200.0 mg/kg/injection, schedule: Q01DX009 (ip), vehicle: saline with Tween-80.
Where [5] appears, read: dose: 50.0 mg/kg/injection, schedule: Q01DX005 (ip), vehicle: saline with Tween-80.
The mark [6] stands for this setting: dose: 100.0 mg/kg/injection, schedule: Q01DX005 (ip), vehicle: saline with Tween-80.
Where [7] appears, read: dose: 200.0 mg/kg/injection, schedule: Q01DX005 (ip), vehicle: saline with Tween-80.

Values joined by “and” are separate entries in the source; they are usually repeats but may differ in a detail not shown here. Identical values can stand only once. Inconclusive results and toxic doses are left out.

Consider `O=C(c1ccc(C(F)(F)F)cc1)N1C2C3C=CC(C3)C2N1C(=O)c1ccc(C(F)(F)F)cc1` (stereo not given), for which the T/C is 102 % of control under setting [1]; 106 % of control (dose: 100.0 mg/kg/injection, schedule: Q04DX002 (ip), vehicle: Klucel (hydroxypropylcellulose) (HPC)); 102 % of control (dose: 200.0 mg/kg/injection, schedule: Q04DX002 (ip), vehicle: Klucel (hydroxypropylcellulose) (HPC)).

As to `O=C(NC1CCOC1=O)c1ccc(N=C=S)cc1` (stereo not given), the T/C is, setting by setting: (dose: 25.0 mg/kg/injection, schedule: Q04DX003 (ip), vehicle: Klucel (hydroxypropylcellulose) (HPC)) 104 % of control; (dose: 50.0 mg/kg/injection, schedule: Q04DX003 (ip), vehicle: Klucel (hydroxypropylcellulose) (HPC)) 107 % of control; (dose: 100.0 mg/kg/injection, schedule: Q04DX003 (ip), vehicle: Klucel (hydroxypropylcellulose) (HPC)) 101 % of control and 106 % of control.

With `CCc1cccc2c3c([nH]c12)C(CC)(CC(=O)O)OCC3` (stereo not given), the T/C reads like this: (dose: 50.0 mg/kg/injection, schedule: Q01DX009 (ip), vehicle: Klucel (hydroxypropylcellulose) (HPC)) 102 % of control; (dose: 100.0 mg/kg/injection, schedule: Q01DX009 (ip), vehicle: Klucel (hydroxypropylcellulose) (HPC)) 110 % of control; (dose: 200.0 mg/kg/injection, schedule: Q01DX009 (ip), vehicle: Klucel (hydroxypropylcellulose) (HPC)) 107 % of control.

As for `CCOC(=O)n1oc2ccccc2c1=O`, the T/C reads like this: (dose: 50.0 mg/kg/injection, schedule: Q01DX005 (ip), vehicle: Klucel (hydroxypropylcellulose) (HPC)) 99 % of control; (dose: 100.0 mg/kg/injection, schedule: Q01DX005 (ip), vehicle: Klucel (hydroxypropylcellulose) (HPC)) 98 % of control; (dose: 200.0 mg/kg/injection, schedule: Q01DX005 (ip), vehicle: Klucel (hydroxypropylcellulose) (HPC)) 98 % of control.

`COc1cc2ccc3c4c(OC)c(OC)c(OC)cc4c[n+](C)c3c2cc1OC`: the T/C was 111 % of control (dose: 2.0 mg/kg/injection, schedule: Q01DX009 (ip), vehicle: water); 113 % of control (dose: 4.0 mg/kg/injection, schedule: Q01DX009 (ip), vehicle: water); 110 % of control (dose: 8.0 mg/kg/injection, schedule: Q01DX009 (ip), vehicle: water); 118 % of control (dose: 16.0 mg/kg/injection, schedule: Q01DX009 (ip), vehicle: water).

In the case of `C[n+]1ccn(Cc2ccc([N+](=O)[O-])cc2)c1`, the T/C runs as follows: (dose: 50.0 mg/kg/injection, schedule: Q01DX009 (ip), vehicle: saline) 115 % of control; (dose: 100.0 mg/kg/injection, schedule: Q01DX009 (ip), vehicle: saline) 102 % of control.

As for `CNc1ccc2ccc(N(C)C)cc2n1`, the T/C runs as follows: (dose: 12.5 mg/kg/injection, schedule: Q04DX002 (ip), vehicle: Klucel (hydroxypropylcellulose) (HPC)) 102 % of control; (dose: 25.0 mg/kg/injection, schedule: Q04DX002 (ip), vehicle: Klucel (hydroxypropylcellulose) (HPC)) 97 % of control; under setting [1], 101 % of control.

On to `O=S(=O)(O)c1cccc(/C(=N\Nc2ccccn2)c2ccccn2)c1`, for which the T/C by setting is: under setting [2], 100 % of control; under setting [3], 102 % of control; under setting [4], 100 % of control.

Take `O=C1CCCC2=C1C1(OC3C=CC=CN23)C(=O)c2ccccc2C1=O` (stereo not given): the T/C was 103 % of control under setting [5], 97 % of control under setting [6] and 92 % of control under setting [7].

Take `Nc1cnc2nc(N)[nH]c(=O)c2c1`: the T/C (dose: 100.0 mg/kg/injection, schedule: Q01DX009 (ip), vehicle: saline sonified) was 120 % of control; the T/C (dose: 200.0 mg/kg/injection, schedule: Q01DX009 (ip), vehicle: saline sonified) is 110 % of control; the T/C (dose: 400.0 mg/kg/injection, schedule: Q01DX009 (ip), vehicle: saline sonified) is 105 % of control.

In the case of `O=C1OC(C2OC(=O)C(=O)C2C(=O)c2ccccc2Cl)C(C(=O)c2ccccc2Cl)C1=O` (stereo not given), the T/C is 99 % of control (dose: 15.0 mg/kg/injection, schedule: Q01DX005 (ip), vehicle: saline + Tween-80 + alcohol) and 91 % of control (dose: 30.0 mg/kg/injection, schedule: Q01DX005 (ip), vehicle: saline + Tween-80 + alcohol).

In the case of `C=C(Cl)CN(CCCC(=O)O)c1ccccc1`, the T/C was 100 % of control (dose: 100.0 mg/kg/injection, schedule: Q04DX003 (ip), vehicle: other); 109 % of control (dose: 200.0 mg/kg/injection, schedule: Q04DX003 (ip), vehicle: other); 90 % of control (dose: 400.0 mg/kg/injection, schedule: Q04DX003 (ip), vehicle: other).

Take `COc1ccc(C(Nc2ccccn2)c2cc(C(C)(C)C)c(O)c(C(C)(C)C)c2)cc1` (stereo not given): the T/C was 88 % of control under setting [5], 91 % of control under setting [6] and 95 % of control under setting [7].

`CC1OC(=O)C(=O)/C1=C1/CC(C)(C)N(c2ccccc2)N1` (stereo not given): the T/C was 104 % of control and 91 % of control (dose: 25.0 mg/kg/injection, schedule: Q01DX009 (ip), vehicle: saline with Tween-80); 107 % of control and 108 % of control and 90 % of control under setting [2]; 90 % of control and 96 % of control under setting [3]; 88 % of control and 92 % of control under setting [4].

In the case of `C=C1CCC2(C)C(O)CC3(C)C(CCC4C5(C)CCC(OC(C)=O)C(C)(C)C5CCC43C)C2C1C` (stereo not given), the T/C was 107 % of control (dose: 1.0 mg/kg/injection, schedule: Q01DX009 (ip), vehicle: alcohol); 105 % of control (dose: 2.0 mg/kg/injection, schedule: Q01DX009 (ip), vehicle: alcohol); 115 % of control (dose: 4.0 mg/kg/injection, schedule: Q01DX009 (ip), vehicle: alcohol).

For `CCOC(=O)C1N=C(OCC)C(C)N=C1OCC` (stereo not given), the T/C is, setting by setting: (dose: 60.0 mg/kg/injection, schedule: Q01DX005 (ip), vehicle: saline) 101 % of control; (dose: 120.0 mg/kg/injection, schedule: Q01DX005 (ip), vehicle: saline) 102 % of control; (dose: 240.0 mg/kg/injection, schedule: Q01DX005 (ip), vehicle: saline) 100 % of control.

On to `CC(=O)N(C)N=NCCCl`, for which the T/C is 157 % of control (dose: 13.12 mg/kg/injection, schedule: Q01DX005 (ip), vehicle: saline with Tween-80); 217 % of control (dose: 26.15 mg/kg/injection, schedule: Q01DX005 (ip), vehicle: saline with Tween-80); 257 % of control (dose: 52.5 mg/kg/injection, schedule: Q01DX005 (ip), vehicle: saline with Tween-80); 171 % of control (dose: 105.0 mg/kg/injection, schedule: Q01DX005 (ip), vehicle: saline with Tween-80).

With `CCOC(=O)c1ccc(NC(=O)Oc2ccc(NC(C)=O)cc2)cc1`, the T/C was 98 % of control (dose: 60.0 mg/kg/injection, schedule: Q01DX005 (ip), vehicle: Klucel (hydroxypropylcellulose) (HPC)); 92 % of control (dose: 120.0 mg/kg/injection, schedule: Q01DX005 (ip), vehicle: Klucel (hydroxypropylcellulose) (HPC)); 92 % of control (dose: 240.0 mg/kg/injection, schedule: Q01DX005 (ip), vehicle: Klucel (hydroxypropylcellulose) (HPC)).
